Assay results taken from ChEMBL document CHEMBL2417465, “One-pot synthesis and cytotoxicity studies of new Mannich base derivatives of polyether antibiotic--lasalocid acid” (Bioorg Med Chem Lett, 2013).
Activity calls are given as the source filed them. No cut-off for these calls is given here.

Assays:
MCF7 [1] = test: Selectivity index, ratio of IC50 for mouse BALB/3T3 cells to IC50 for human MCF7 cells; assay type: functional
HT-29 [2] = test: Selectivity index, ratio of IC50 for mouse BALB/3T3 cells to IC50 for human HT-29 cells; assay type: functional
A549 [3] = test: Cytotoxicity against human A549 cells after 72 hrs by MTT assay; assay type: functional, cell-based; details: for IC50: A549, 72 h
[4] = Cytotoxicity against HLMEC cells after 72 hrs by SRB assay; assay type: cell-based, Homo sapiens; details: for IC50: Homo sapiens, HLMEC; for Activity: human, hlmec
A549 [5] = test: Selectivity index, ratio of IC50 for HLMEC cells to IC50 for human A549 cells; assay type: functional
HT-29 [6] = test: Cytotoxicity against human HT-29 cells after 72 hrs by MTT assay; assay type: functional, cell-based; details: for IC50: HT-29, 72 h
MCF7 [7] = test: Selectivity index, ratio of IC50 for HLMEC cells to IC50 for human MCF7 cells; assay type: functional
P388 [8] = test: Selectivity index, ratio of IC50 for mouse BALB/3T3 cells to IC50 for mouse P388 cells; assay type: functional
A549 [9] = test: Selectivity index, ratio of IC50 for mouse BALB/3T3 cells to IC50 for human A549 cells; assay type: functional
P388 [10] = test: Selectivity index, ratio of IC50 for HLMEC cells to IC50 for mouse P388 cells; assay type: functional
HT-29 [11] = test: Selectivity index, ratio of IC50 for HLMEC cells to IC50 for human HT-29 cells; assay type: functional
BALB/3T3 = test: Cytotoxicity against mouse BALB/3T3 cells after 72 hrs by SRB assay; assay type: cell-based; details: for IC50: Mus musculus, BALB/3T3, 72 h; for Activity: mouse, balb/3t3, 72 h
MCF7 [12] = test: Cytotoxicity against human MCF7 cells after 72 hrs by MTT assay; assay type: functional, cell-based; details: for IC50: MCF7, 72 h
P388 [13] = test: Cytotoxicity against mouse P388 cells after 72 hrs by MTT assay; assay type: functional, cell-based; details: for IC50: P388, 72 h

| Compound | Ratio IC50 (MCF7 [1]) | Ratio IC50 (HT-29 [2]) | IC50 (A549 [3]) [µM] | IC50 [4] [µM] | Ratio IC50 (A549 [5]) | IC50 (HT-29 [6]) [µM] | Ratio IC50 (MCF7 [7]) | Ratio IC50 (P388 [8]) | Ratio IC50 (A549 [9]) | Ratio IC50 (P388 [10]) | Ratio IC50 (HT-29 [11]) | IC50 (BALB/3T3) [µM] | IC50 (MCF7 [12]) [µM] | IC50 (P388 [13]) [µM] | Activity (A549 [3]) | Activity [4] | Activity (HT-29 [6]) | Activity (BALB/3T3) | Activity (MCF7 [12]) | Activity (P388 [13]) |
| --- | --- | --- | --- | --- | --- | --- | --- | --- | --- | --- | --- | --- | --- | --- | --- | --- | --- | --- | --- | --- |
| CC[C@@H](C(=O)[C@@H](C)[C@@H](O)[C@H](C)CCc1ccc(C)c(O)c1CN(Cc1ccccc1)Cc1ccccc1)[C@H]1O[C@](CC)([C@H]2CC[C@](O)(CC)[C@H](C)O2)C[C@@H]1C | 4.17 | 1.02 | 36.8 | 4.61 | 0.13 | 75.6 | 0.25 | 18.72 | 2.09 | 1.12 | 0.06 | 76.9 | 18.4 | 4.11 |  |  |  |  |  |  |
| CC[C@@H](C(=O)[C@@H](C)[C@@H](O)[C@H](C)CCc1ccc(C)c(O)c1CN(C(C)C)C(C)C)[C@H]1O[C@](CC)([C@H]2CC[C@](O)(CC)[C@H](C)O2)C[C@@H]1C | 3.1 | 3.2 | 5.62 | 4.63 | 0.82 | 5.33 | 0.84 | 3.56 | 3.03 | 0.97 | 0.87 | 17.1 | 5.5 | 4.79 |  |  |  |  |  |  |
| CC[C@@H](C(=O)[C@@H](C)[C@@H](O)[C@H](C)CCc1ccc(C)c(O)c1CN1CCOCC1)[C@H]1O[C@](CC)([C@H]2CC[C@](O)(CC)[C@H](C)O2)C[C@@H]1C | 6.89 | 2.5 | 6.81 | 4.86 | 0.71 | 5.74 | 2.33 | 4.44 | 2.1 | 1.5 | 0.85 | 14.3 | 2.08 | 3.23 |  |  |  |  |  |  |
| CCCCCCCCCCCCN(CCCCCCCCCCCC)Cc1c(CC[C@@H](C)[C@H](O)[C@H](C)C(=O)[C@H](CC)[C@H]2O[C@](CC)([C@H]3CC[C@](O)(CC)[C@H](C)O3)C[C@@H]2C)ccc(C)c1O |  |  |  |  |  |  |  |  |  |  |  |  |  |  | inactive | Non-toxic | inactive | Non-toxic | inactive | inactive |
| CCCN(CCC)Cc1c(CC[C@@H](C)[C@H](O)[C@H](C)C(=O)[C@H](CC)[C@H]2O[C@](CC)([C@H]3CC[C@](O)(CC)[C@H](C)O3)C[C@@H]2C)ccc(C)c1O | 4.04 | 3.23 | 5.3 | 4.12 | 0.78 | 7.03 | 0.73 | 6.35 | 4.29 | 1.15 | 0.59 | 22.7 | 5.62 | 3.58 |  |  |  |  |  |  |
| CCCCN(CCCC)Cc1c(CC[C@@H](C)[C@H](O)[C@H](C)C(=O)[C@H](CC)[C@H]2O[C@](CC)([C@H]3CC[C@](O)(CC)[C@H](C)O3)C[C@@H]2C)ccc(C)c1O |  |  | 5.27 | 4.43 | 0.84 | 7.02 | 0.73 |  |  | 0.69 | 0.63 |  | 6.11 | 6.35 |  |  |  |  |  |  |
| CC[C@@H](C(=O)[C@@H](C)[C@@H](O)[C@H](C)CCc1ccc(C)c(O)c1C(=O)O)[C@H]1O[C@](CC)([C@H]2CC[C@](O)(CC)[C@H](C)O2)C[C@@H]1C [LASALOCID] | 2.36 | 3.77 | 1.8 | 1.75 | 0.97 | 1.95 | 0.56 | 1.62 | 4.08 | 0.39 | 0.9 | 7.35 | 3.12 | 4.54 |  |  |  |  |  |  |
| CCCCCCCCN(CCCCCCCC)Cc1c(CC[C@@H](C)[C@H](O)[C@H](C)C(=O)[C@H](CC)[C@H]2O[C@](CC)([C@H]3CC[C@](O)(CC)[C@H](C)O3)C[C@@H]2C)ccc(C)c1O |  |  |  |  |  |  |  |  |  |  |  |  |  |  | inactive | Non-toxic | inactive | Non-toxic | inactive | inactive |
